In brackets after ≈: the same amount, converted by molar mass. Several values for one entry are separate records, joined by “and”; a condition that tells them apart may be missing. Equal entries are not always repeated.
Key:
[1] = Physical and chemical stability in solid form; format: physicochemical
[2] = In-situ salt selection test carried out in water; format: physicochemical; conditions: for Appearance: appearance of the resulting solution after 24 hours at 25° C., in water; for aqueous solubility (in words): summary statement; for solubility at 24 h: water (salt formed in situ with aqueous acid), thermodynamic from solid
Description: Aqueous solutions (0.5 molar (M)) of ethanesulfonic acid, methanesulfonic acid, and hydrochloric acid were prepared. For ethanesulfonic acid and methanesulfonic acid, the neat acid (0.05 mol) was dissolved in water (100 mL) to prepare the solutions. Hydrochloric acid (1 normal (N)) was diluted with water to prepare 0.5 M hydrochloric acid. The free base of 1-(2-methylpropyl)-1H-imidazo[4,5-c][1,5]naphthyridin-4-amine in an amount indicated in the following Table 1 was added to a vial, and the acidic solution from the following Table 1 (1.05 equivalent) was added. The vial was capped and shaken at 25° C. in a water bath for 24 hours. The resulting salt mixture or solution was filtered through Whatman No. 5 filter paper, and 1 mL of the filtrate was diluted with methanol (10 mL) to provide a specimen for analysis. The solubility of the salt in water was determined for each specimen by analyzing for soluble salt content by reverse phase high performance liquid chromatography (HPLC) using the following method.
A diluent was prepared by dissolving phosphoric acid (1 mL of 85%) in HPLC grade water (1 L). The resulting solution was mixed in a 60:40 ratio with acetonitrile. Each specimen was diluted to a volume of 50.0 mL with the diluent to provide a sample having a concentration of less than or equal to (≦) 50 micrograms per milliliter (μg/mL).
An external standard was prepared by dissolving 1-(2-methylpropyl)-1H-imidazo[4,5-c][1,5]naphthyridin-4-amine free base (25 mg) in methanol (30 mL) with the aid of sonication and then diluting to a volume of 50.0 mL with methanol to provide a stock solution. Diluent was added to 5 mL of the stock solution to a volume of 50.0 mL.
A Waters LC Module 1 HPLC system equipped with an autosampler, a reproducible injector, a UV detector (326 nm wavelength), and Turbochrom data acquisition software was used with a ZORBAX Bonus-RP C14, 15 cm×4.6 mm column with 5 μm packing. The mobile phase was prepared by dissolving 1-octanesulfonate, sodium salt (2.00 g) and phosphoric acid (1 mL of 85%) in HPLC grade water (1 L) and mixing the resulting solution in a 65:35 ratio with HPLC grade acetonitrile. A flow rate of 1.0 mL/min was used.
The column was equilibrated with the mobile phase, and the system was tested using six 20 μL injections of the external standard to ensure that the relative standard deviation for the peak areas was less than or equal to (≦) 1.5%. An injection of each sample (20 μL) was tested in comparison to a standard. The concentration, in percentage, of 1-(2-methylpropyl)-1H-imidazo[4,5-c][1,5]naphthyridin-4-amine in solution was then calculated using the following operation: {[peak area of the sample/weight of the sample (mg)]/[peak area of the standard/weight of the standard (mg)]average}×100. The solubility of the salt, presented in the following Table 1, can then be calculated using the equations presented by Tong, W. Q., and Whitesell, G, Pharmaceutical Development and Technology, 3(2), pp. 215-223 (1998).

[3] = system: interferon (α) and tumor necrosis factor (α) secreted by peripheral blood mononuclear cells (PBMC); assay: Cytokine induction in human cells (PBMC); format: cell-based; conditions: 18 to 24 hours, 30-0.014 μM
Excerpt: An in vitro human blood cell system is used to assess cytokine induction. Activity is based on the measurement of interferon (α) and tumor necrosis factor (α) (IFN and TNF, respectively) secreted into culture media as described by Testerman et al. in “Cytokine Induction by the Immunomodulators Imiquimod and S-27609,” Journal of Leukocyte Biology, 58, 365-372 (September, 1995).
Whole blood from healthy human donors is collected by venipuncture into EDTA vacutainer tubes. Peripheral blood mononuclear cells (PBMC) are separated from whole blood by density gradient centrifugation using HISTOPAQUE-1077. […]
Following incubation the plates are centrifuged for 10 minutes at 1000 revolutions per minute (rpm) (approximately 200×g) at 4° C. […] The samples are analyzed for interferon (α) by ELISA and for tumor necrosis factor (α) by ELISA or IGEN Assay.
Interferon (α) concentration is determined by ELISA using a Human Multi-Species kit from PBL Biomedical Laboratories, New Brunswick, N.J. Results are expressed in pg/mL.
Tumor necrosis factor (α) (TNF) concentration is determined using ELISA kits available from Biosource International, Camarillo, Calif. Alternately, the TNF concentration can be determined by ORIGEN M-Series Immunoassay and read on an IGEN M-8 analyzer from IGEN International, Gaithersburg, Md. […]

[4] = In-situ salt selection test carried out in water with a cosolvent; format: physicochemical; conditions: 25 °C, aqueous with cosolvent or surfactant or cyclodextrin, thermodynamic from solid, final acid concentration 0.05 M
cytokine biosynthesis = conditions: U.S. Pat. No. 6,194,425; cited from earlier work
[5] = Aqueous solubility of the free base measured potentiometrically as a function of pH (p-SOL microtitrator); format: physicochemical; conditions: saline or isotonic, thermodynamic from solid, 0.15 M aqueous potassium chloride, potentiometric titration, read-out: intrinsic solubility (So)
Description: (§1) The aqueous solubility of 1-(2-methylpropyl)-1H-imidazo[4,5-c][1,5]naphthyridin-4-amine free base was measured potentiometrically as a function of pH. […] The titration was carried out on a sample approximately 3 mg in size. […] The pKa of 1-(2-methylpropyl)-1H-imidazo[4,5-c][1,5]naphthyridin-4-amine, determined potentiometrically in a separate experiment to be 6.1, was used in the calculation to determine the intrinsic solubility. The curve showing solubility as a function of pH for 1-(2-methylpropyl)-1H-imidazo[4,5-c][1,5]naphthyridin-4-amine free base is shown in FIG. 5.

[6] = pKa determined potentiometrically; format: physicochemical; conditions: determined potentiometrically in a separate experiment
Description: as §1

[7] = salt formed in situ in water, shaken at 25° C. for 24 hours, filtrate by HPLC
[8] = 5% (w/w) diethylene glycol monoethyl ether in water
[9] = 5% (w/w) propylene glycol in water

SMILES	melting point	Appearance [2]	aqueous solubility (in words) [2]	solubility at 24 h [2, 7]	solubility at 24 h [4, 8]	solubility at 24 h [4, 9]	solubility [2, 7]	solubility [5]	pKa [6]	physical and chemical stability in solid form [1]	induction of interferon α and/or tumor necrosis factor α production [3]	ability to induce cytokine biosynthesis (cytokine biosynthesis)
CC(C)Cn1cnc2c(N)nc3cccnc3c21.CCS(=O)(=O)O.O (hydrate or solvate)	221.5 to 223.4 °C and 220 to 221 °C											
CC(C)Cn1cnc2c(N)nc3cccnc3c21.CCS(=O)(=O)O [Ethanesulfonic, 1-(2-methylpropyl)-1H-imidazo[4,5-c][1,5]naphthyridin-4-amine ethanesulfonate]		Clear	good aqueous solubility	24.4 mg/mL	10.5 mg/mL	> 10.1 mg/mL				good physical and chemical stability in solid form	inducing the production of interferon α and/or tumor necrosis factor α	
CC(C)Cn1cnc2c(N)nc3cccnc3c21.CS(=O)(=O)O [Methanesulfonic, 1-(2-methylpropyl)-1H-imidazo[4,5-c][1,5]naphthyridin-4-amine methanesulfonate]		Translucent	good aqueous solubility	15.2 mg/mL	10.5 mg/mL	10.3 mg/mL				good physical and chemical stability in solid form		

The next lines start with results.

melting point	Appearance [2]	aqueous solubility (in words) [2]	solubility at 24 h [2, 7]	solubility at 24 h [4, 8]	solubility at 24 h [4, 9]	solubility [2, 7]	solubility [5]	pKa [6]	SMILES	physical and chemical stability in solid form [1]	induction of interferon α and/or tumor necrosis factor α production [3]	ability to induce cytokine biosynthesis (cytokine biosynthesis)
	Milky,	low aqueous solubility				0.39 mg/mL			CC(C)Cn1cnc2c(N)nc3cccnc3c21.Cl [Hydrochloric, hydrochloride salt of 1-(2-methylpropyl)-1H-imidazo[4,5-c][1,5]naphthyridin-4-amine, reference compound]			
		particularly low aqueous solubility					3 µg/mL (≈ 12.4 µM)	6.1	CC(C)Cn1cnc2c(N)nc3cccnc3c21 [1-(2-methylpropyl)-1H-imidazo[4,5-c][1,5]naphthyridin-4-amine]			ability to induce cytokine biosynthesis

From US20080188513A1, “1-(2-Methylpropyl)-1H-Imidazo[4,5-C](1,5]Naphthyridin-4-Amine Ethanesulfonate and 1-(2-Methylpropyl)-1H-Imidazo[4,5-C](1,5]Naphthyridin-4-Amine Methanesulfonate” (taked Pharmaceutical Company Limited, priority 2004, published 2008)
